Converted amounts (≈) assume the structure as drawn. The source made the active and inactive calls. The calls are words filed in the database; no cut-off is given here.
How the values were obtained:
[1] = tested on: Staphylococcus aureus; assay: Antibacterial activity against Staphylococcus aureus at 50 ug/ml after 18 to 24 hrs by disc diffusion method; format: functional; conditions: for zone of inhibition at 50 µg/mL: read-out: IZ
[2] = tested on: Mycobacterium tuberculosis; assay: Antimycobacterial activity against Mycobacterium tuberculosis H37Rv ATCC 27294 after 5 days by microplate alamar blue assay; format: functional; conditions: H37Rv ATCC 27294, 120 h
[3] = tested on: Pseudomonas aeruginosa; assay: Antibacterial activity against Pseudomonas aeruginosa at 50 ug/ml after 18 to 24 hrs by disc diffusion method; format: functional; conditions: read-out: IZ
[4] = tested on: Pseudomonas aeruginosa; assay: Antibacterial activity against Pseudomonas aeruginosa at 75 ug/ml after 18 to 24 hrs by disc diffusion method; format: functional; conditions: read-out: IZ
[5] = tested on: Staphylococcus aureus; assay: Antibacterial activity against Staphylococcus aureus at 75 ug/ml after 18 to 24 hrs by disc diffusion method; format: functional; conditions: for zone of inhibition at 75 µg/mL: read-out: IZ
[6] = tested on: Escherichia coli; assay: Antibacterial activity against Escherichia coli at 50 ug/ml after 18 to 24 hrs by disc diffusion method; format: functional; conditions: read-out: IZ
[7] = tested on: Escherichia coli; assay: Antibacterial activity against Escherichia coli at 75 ug/ml after 18 to 24 hrs by disc diffusion method; format: functional; conditions: read-out: IZ
[8] = Selectivity index, ratio of IC50 for African green monkey Vero cells to MIC for Mycobacterium tuberculosis H37Rv ATCC 27294; format: toxicity, cell-based
[9] = tested on: Vero; assay: Cytotoxicity against African green monkey Vero cells after 72 hrs by MTT assay; format: cell-based; conditions: Chlorocebus sabaeus

| Structure (SMILES) | zone of inhibition at 50 µg/mL [1] [mm] | MIC [2] [µg/mL] | zone of inhibition at 50 µg/mL [3] [mm] | zone of inhibition at 75 µg/mL [4] [mm] | zone of inhibition at 75 µg/mL [5] [mm] | zone of inhibition at 50 µg/mL [6] [mm] | zone of inhibition at 75 µg/mL [7] [mm] | inhibition zone (IZ) [1] | inhibition zone (IZ) [5] | selectivity ratio [8] | IC50 [9] [µg/mL] |
| --- | --- | --- | --- | --- | --- | --- | --- | --- | --- | --- | --- |
| N=c1sc(-c2cccs2)nn1CC(=O)N1c2ccccc2Sc2ccc(C(F)(F)F)cc21 | 5 | 50 (≈ 102 µM) | 8 | 12 | 8 | 8 | 10 |  |  |  |  |
| N=c1sc(-c2cccs2)nn1CC(=O)N1c2ccccc2Sc2ccc(Cl)cc21 |  | 50 (≈ 109 µM) | 7 | 11 |  | 4 | 8 | inactive | inactive |  |  |
| COc1ccc(-c2nn(CC(=O)N3c4ccccc4Sc4ccc(C(F)(F)F)cc43)c(=N)s2)cc1OC | 4 | 50 (≈ 91.8 µM) | 6 | 9 | 7 | 8 | 10 |  |  |  |  |
| N=c1sc(-c2ccc(F)cc2)nn1CC(=O)N1c2ccccc2Sc2ccccc21 | 5 | 3.12 (≈ 7.19 µM) | 8 | 12 | 8 | 8 | 11 |  |  | 79.1 | 247 (≈ 568 µM) |
| N=c1sc(-c2ccc(F)cc2)nn1CC(=O)N1c2ccccc2Sc2ccc(C(F)(F)F)cc21 | 7 | 1.6 (≈ 3.18 µM) | 7 | 13 | 10 | 9 | 11 |  |  | 458 | 733 (≈ 1460 µM) |
| N=c1sc(-c2ccc(Cl)cc2)nn1CC(=O)N1c2ccccc2Sc2ccc(C(F)(F)F)cc21 | 11 | 25 (≈ 48.2 µM) | 9 | 14 | 13 | 11 | 12 |  |  |  |  |
| COc1ccc(-c2nn(CC(=O)N3c4ccccc4Sc4ccccc43)c(=N)s2)cc1OC | 18 | 12.5 (≈ 26.2 µM) | 20 | 25 | 21 | 13 | 16 |  |  |  |  |
| CCCc1nn(CC(=O)N2c3ccccc3Sc3ccc(C(F)(F)F)cc32)c(=N)s1 | 7 | 3.12 (≈ 6.94 µM) | 3 | 7 | 11 | 6 | 9 |  |  | 76.4 | 238 (≈ 529 µM) |
| CCCc1nn(CC(=O)N2c3ccccc3Sc3ccccc32)c(=N)s1 | 12 | 1.6 (≈ 4.18 µM) | 11 | 15 | 16 | 11 | 14 |  |  | 157 | 252 (≈ 658 µM) |
| NNC(=O)c1ccncc1 [ISONIAZID] |  | 0.1 (≈ 0.729 µM) |  |  |  |  |  |  |  |  |  |
| Cc1nn(CC(=O)N2c3ccccc3Sc3ccc(Cl)cc32)c(=N)s1 | 10 | 1.6 (≈ 4.11 µM) | 9 | 13 | 13 | 14 | 16 |  |  | 294 | 470 (≈ 1210 µM) |
| Cc1ccc(-c2nn(CC(=O)N3c4ccccc4Sc4ccc(Cl)cc43)c(=N)s2)cc1 | 10 | 50 (≈ 108 µM) | 4 | 7 | 12 | 7 | 9 |  |  |  |  |
| Cc1nn(CC(=O)N2c3ccccc3Sc3ccccc32)c(=N)s1 | 22 | 1.6 (≈ 4.51 µM) | 20 | 25 | 26 | 20 | 25 |  |  | 271 | 433 (≈ 1220 µM) |
| CN[C@@H]1[C@H](O[C@H]2[C@H](O[C@H]3[C@H](O)[C@@H](O)[C@H](N=C(N)N)[C@@H](O)[C@@H]3N=C(N)N)O[C@@H](C)[C@]2(O)C=O)O[C@@H](CO)[C@H](O)[C@H]1O [STREPTOMYCIN] |  | 6.25 (≈ 10.7 µM) |  |  |  |  |  |  |  |  |  |
| CCCc1nn(CC(=O)N2c3ccccc3Sc3ccc(Cl)cc32)c(=N)s1 | 8 | 0.8 (≈ 1.92 µM) | 10 | 12 | 10 | 8 | 12 |  |  | 306 | 245 (≈ 588 µM) |
| Cc1ccc(-c2nn(CC(=O)N3c4ccccc4Sc4ccc(C(F)(F)F)cc43)c(=N)s2)cc1 | 9 | 50 (≈ 100 µM) | 6 | 9 | 11 | 11 | 13 |  |  |  |  |
| N=c1sc(-c2ccc(F)cc2)nn1CC(=O)N1c2ccccc2Sc2ccc(Cl)cc21 | 5 | 3.12 (≈ 6.66 µM) | 7 | 10 | 9 | 7 | 12 |  |  | 149 | 465 (≈ 992 µM) |
| O=C(O)c1cn(C2CC2)c2cc(N3CCNCC3)c(F)cc2c1=O [CIPROFLOXACIN] | 21 | 3.12 (≈ 9.43 µM) | 18 | 21 | 26 | 27 | 32 |  |  |  |  |
| N=c1sc(-c2cccs2)nn1CC(=O)N1c2ccccc2Sc2ccccc21 |  | 50 (≈ 118 µM) | 2 | 4 |  | 6 | 7 | inactive | inactive |  |  |
| Cc1ccc(-c2nn(CC(=O)N3c4ccccc4Sc4ccccc43)c(=N)s2)cc1 | 16 | 0.8 (≈ 1.86 µM) | 9 | 11 | 21 | 24 | 27 |  |  | 269 | 215 (≈ 499 µM) |
| COc1ccc(-c2nn(CC(=O)N3c4ccccc4Sc4ccc(Cl)cc43)c(=N)s2)cc1OC | 6 | 50 (≈ 97.8 µM) | 4 | 6 | 8 | 4 | 8 |  |  |  |  |
| Cc1nn(CC(=O)N2c3ccccc3Sc3ccc(C(F)(F)F)cc32)c(=N)s1 | 14 | 1.6 (≈ 3.79 µM) | 12 | 15 | 17 | 15 | 20 |  |  | 219 | 350 (≈ 828 µM) |
| N=c1sc(-c2ccc(Cl)cc2)nn1CC(=O)N1c2ccccc2Sc2ccccc21 | 7 | 50 (≈ 111 µM) | 7 | 10 | 9 | 8 | 10 |  |  |  |  |
| N=c1sc(-c2ccc(Cl)cc2)nn1CC(=O)N1c2ccccc2Sc2ccc(Cl)cc21 | 15 | 1.6 (≈ 3.3 µM) | 15 | 20 | 17 | 12 | 15 |  |  | 473 | 757 (≈ 1560 µM) |
| CC[C@@H](CO)NCCN[C@@H](CC)CO [ETHAMBUTOL] |  | 3.12 (≈ 15.3 µM) |  |  |  |  |  |  |  |  |  |
